IC50 data for 2 molecules are collected here from ChEMBL document CHEMBL4706739, “Novel Heterobicyclic Carboxamides for Treating Eye Diseases” (ACS Med Chem Lett, 2021).

The target of this test is Rho-associated protein kinase 2 (Homo sapiens, UniProt O75116). The test is described as follows: Inhibition of ROCK2 (unknown origin) using KRRRLSSLRA as substrate incubated for 75 mins in presence of ATP and DTT by Kinase-Glo luminescent assay. Background: In Kinase-Glo more light means more ATP remaining.
Sequence of Rho-associated protein kinase 2 (O75116 whole entry): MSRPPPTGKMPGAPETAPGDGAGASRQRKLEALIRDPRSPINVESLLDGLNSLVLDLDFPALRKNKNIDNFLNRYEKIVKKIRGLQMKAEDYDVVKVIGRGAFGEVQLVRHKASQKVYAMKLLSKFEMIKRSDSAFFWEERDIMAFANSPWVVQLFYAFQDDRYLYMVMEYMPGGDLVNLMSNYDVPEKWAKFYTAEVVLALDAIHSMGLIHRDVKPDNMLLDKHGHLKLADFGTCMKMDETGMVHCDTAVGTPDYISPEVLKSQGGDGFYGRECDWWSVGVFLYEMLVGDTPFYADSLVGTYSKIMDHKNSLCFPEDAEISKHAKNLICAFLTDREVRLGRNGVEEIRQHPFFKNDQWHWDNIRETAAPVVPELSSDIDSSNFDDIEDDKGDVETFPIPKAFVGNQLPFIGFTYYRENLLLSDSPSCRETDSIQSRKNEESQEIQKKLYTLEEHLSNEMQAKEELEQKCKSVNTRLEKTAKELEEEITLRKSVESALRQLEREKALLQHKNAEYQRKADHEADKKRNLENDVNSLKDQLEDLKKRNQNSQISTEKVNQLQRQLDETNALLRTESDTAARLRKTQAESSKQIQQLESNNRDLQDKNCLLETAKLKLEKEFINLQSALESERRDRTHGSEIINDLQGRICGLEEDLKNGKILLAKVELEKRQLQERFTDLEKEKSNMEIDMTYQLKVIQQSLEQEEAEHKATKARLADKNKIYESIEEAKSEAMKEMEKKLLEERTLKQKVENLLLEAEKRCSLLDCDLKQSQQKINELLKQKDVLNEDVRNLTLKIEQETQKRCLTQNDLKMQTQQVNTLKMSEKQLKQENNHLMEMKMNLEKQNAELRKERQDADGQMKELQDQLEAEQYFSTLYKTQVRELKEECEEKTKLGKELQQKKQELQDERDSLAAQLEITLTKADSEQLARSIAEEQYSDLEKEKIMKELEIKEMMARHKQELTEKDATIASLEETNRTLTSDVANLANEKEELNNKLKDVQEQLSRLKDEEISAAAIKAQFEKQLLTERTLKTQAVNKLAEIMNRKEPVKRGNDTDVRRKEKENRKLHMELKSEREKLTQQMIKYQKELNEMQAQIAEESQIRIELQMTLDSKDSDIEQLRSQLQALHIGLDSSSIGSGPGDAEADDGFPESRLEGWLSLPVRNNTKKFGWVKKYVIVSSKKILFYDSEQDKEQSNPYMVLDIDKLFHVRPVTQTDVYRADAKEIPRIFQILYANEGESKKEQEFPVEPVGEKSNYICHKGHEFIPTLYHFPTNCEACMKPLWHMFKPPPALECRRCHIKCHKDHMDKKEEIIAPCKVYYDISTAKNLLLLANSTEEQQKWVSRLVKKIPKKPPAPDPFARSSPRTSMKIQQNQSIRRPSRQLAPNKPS

SMILES strings stand for the structures.

The term IC50 denotes the midpoint of a concentration-inhibition curve. With `O=C(Nc1ccc2cnccc2n1)[C@@H]1C[C@H]1c1ccc(S(=O)(=O)Nc2ccccn2)cc1`, the IC50 was 6 nM.
In the case of `O=C(Nc1nc2ccncc2s1)[C@@H]1C[C@H]1c1ccc(S(=O)(=O)Nc2ccccn2)cc1`, the IC50 was 6 nM.
